Source: patent US8673353B2, “Tablet having improved elution properties” (Dainippon Sumitomo Pharma Co., Ltd, priority 2008, dated 2014)
Structures can show the parent of a compound that is named as a salt.

Experiment: Particle size by laser diffraction particle size distribution meter (dry method)
Type: physicochemical
Conditions: HELOS&RODOS, drug substance used in the Examples
Description: The above-mentioned particle sizes (undersize D50% particle size, undersize D90% particle size etc.) are values measured using a laser diffraction particle size distribution meter (dry method). For example, when a laser diffraction particle size distribution measurement apparatus HELOS & RODOS manufactured by Sympatec GmbH is used, measurement can be performed by setting the measurement range to R3 and the indication basis of the particle amount to volume basis.
The particle size of 3/2 fumarate of compound A used in the following Examples was 0.5-3 μm for undersize D50% and 1-12 μm for undersize D90% particle size, as measured by a dry method using a laser diffraction particle size distribution measurement apparatus, HELOS&RODOS, manufactured by Sympatec GmbH.

undersize D50% particle size: 0.5-3 μm
undersize D90% particle size: 1-12 μm
Structure (SMILES): O=C1Nc2ccccc2C(c2ccccc2)N1C1CCN(Cc2cccc(OC(F)(F)F)c2)CC1 (single isomer, unassigned; (+)) [3/2 fumarate of compound A, (+)-3-{1-[3-(trifluoromethoxy)benzyl]piperidin-4-yl}-4-phenyl-3,4-dihydro-2(1H)-quinazolinone]
